One experiment concerns HepG2. The experiment can be described thus: Cytotoxicity against human HepG2 cells assessed as decrease in cell proliferation after 48 hrs by MTT colorimetric assay. The settings on record: HepG2, 48 h. In kind it is functional, cell-based. For orientation: Tetrazolium assays rely on reduction of a dye to a coloured formazan, in cell work by metabolically active cells.
The test system of another experiment is Hep 3B2. The experiment can be described thus: Cytotoxicity against human Hep3B cells assessed as decrease in cell proliferation after 48 hrs by MTT colorimetric assay. In kind it is functional, cell-based.
The test system of a further experiment is Bcap37. The experiment can be described thus: Cytotoxicity against human Bcap37 cells assessed as decrease in cell proliferation after 48 hrs by MTT colorimetric assay. It counts as functional, cell-based. The following applies: Bcap37, 48 h.
In experiment [1] the test system is MCF7. The experiment can be described thus: Cytotoxicity against human MCF7 cells assessed as decrease in cell proliferation after 48 hrs by MTT colorimetric assay. In kind it is functional, cell-based.
Another experiment concerns U-251. Put plainly: Cytotoxicity against human U251 cells assessed as decrease in cell proliferation after 48 hrs by MTT colorimetric assay. It counts as functional, cell-based. The settings on record: U-251, 48 h.
The next experiment concerns A549. The experiment can be described thus: Cytotoxicity against human A549 cells assessed as decrease in cell proliferation after 48 hrs by MTT colorimetric assay. It counts as functional, cell-based. The settings on record: A549, 48 h.
The subject of experiment [2] is MCF7. Put plainly: Potency index, ratio of sarsasapogenin IC50 to test compound IC50 for human MCF7 cells. In kind it is functional.
Experiment [3] deals with MCF7. The experiment can be described thus: Cell cycle arrest in human MCF7 cells assessed as accumulation at G2/M phase at 1.5 to 6 uM after 48 hrs by propidium iodide staining-based flow cytometric method. In kind it is functional. (A flow cytometer gives signals particle by particle.)
In experiment [4] the test system is MCF7. The experiment can be described thus: Cell cycle arrest in human MCF7 cells assessed as accumulation at sub-G1 phase at 1.5 to 6 uM after 48 hrs by propidium iodide staining-based flow cytometric method. It counts as functional.
The test system of experiment [5] is MCF7. Put plainly: Induction of apoptosis in human MCF7 cells assessed as cell rounding at 1.5 to 6 uM after 48 hrs by inverted phase contrast microscopic method. In kind it is functional, cell-based.
The test system of experiment [6] is MCF7. The experiment can be described thus: Induction of apoptosis in human MCF7 cells assessed as cell shrinkage at 1.5 to 6 uM after 48 hrs by inverted phase contrast microscopic method. In kind it is functional, cell-based.
In experiment [7] the test system is MCF7. Put plainly: Induction of apoptosis in human MCF7 cells assessed as membrane blebbing at 1.5 to 6 uM after 48 hrs by inverted phase contrast microscopic method. In kind it is functional, cell-based.
Experiment [8] has as its system MCF7. Put plainly: Induction of apoptosis in human MCF7 cells assessed as formation of apoptotic bodies at 1.5 to 6 uM after 48 hrs by inverted phase contrast microscopic method. In kind it is functional, cell-based.
The subject of experiment [9] is MCF7. Put plainly: Induction of apoptosis in human MCF7 cells assessed as early apoptotic cells at 1.5 uM after 48 hrs by annexin-V/propidium iodide staining-based flow cytometric method (reference value: 1.17%). In kind it is functional.
Experiment [10] concerns MCF7. Put plainly: Induction of apoptosis in human MCF7 cells assessed as late apoptotic cells at 1.5 uM after 48 hrs by annexin-V/propidium iodide staining-based flow cytometric method (reference value: 1.43%). It counts as functional.
The test system of experiment [11] is MCF7. The experiment can be described thus: Induction of apoptosis in human MCF7 cells assessed as early apoptotic cells at 3 uM after 48 hrs by annexin-V/propidium iodide staining-based flow cytometric method (reference value: 1.17%). It counts as functional.
In experiment [12] the test system is MCF7. Put plainly: Induction of apoptosis in human MCF7 cells assessed as late apoptotic cells at 3 uM after 48 hrs by annexin-V/propidium iodide staining-based flow cytometric method (reference value: 1.43%). It counts as functional.
Experiment [13] relates to MCF7. Put plainly: Induction of apoptosis in human MCF7 cells assessed as early apoptotic cells at 6 uM after 48 hrs by annexin-V/propidium iodide staining-based flow cytometric method (reference value: 1.17%). In kind it is functional.
Experiment [14] concerns MCF7. Put plainly: Induction of apoptosis in human MCF7 cells assessed as late apoptotic cells at 6 uM after 48 hrs by annexin-V/propidium iodide staining-based flow cytometric method (reference value: […]). It counts as functional.
Experiment [15] relates to MCF7. The experiment can be described thus: Induction of apoptosis in human MCF7 cells assessed as upregulation of cleaved PARP level at 6 uM after 48 hrs by Western blot method relative to control. In kind it is functional. For orientation: A western blot detects proteins with antibodies after separation by electrophoresis.
The subject of experiment [16] is MCF7. Put plainly: Induction of apoptosis in human MCF7 cells assessed as upregulation of cleaved caspase 7 level at 6 uM after 48 hrs by Western blot method relative to control. It counts as functional.

The source made the active and inactive calls. The rule behind the calls is not given here.

For the molecule `COc1ccc(CO[C@H]2CC[C@@]3(C)[C@H](CC[C@@H]4[C@@H]3CC[C@]3(C)[C@H]5[C@H](C)[C@@H](CC[C@H](C)CN6CCNCC6)O[C@H]5C[C@@H]43)C2)cc1`, the IC50 (as a rule, the concentration needed to halve the response being measured) in the experiment with HepG2 amounted to 4.35 µM; in the experiment with Hep 3B2 it was 9.07 µM; in the experiment on Bcap37, 8.83 µM; with U-251, 4.92 µM; with A549, 4.43 µM. The Activity result in the experiment with MCF7 [1] was “Dose-dependent effect”; with MCF7 [1] (record 2), 2.95 µM; with MCF7 [9], 3.24%; with MCF7 [10] it was 5.21%; in the experiment with MCF7 [11], 4.51%; in the experiment with MCF7 [12] it was 5.8%. The Activity turned out to be 4.35% in the experiment on MCF7 [13] and 7.27% with MCF7 [14]. For the same molecule, the “Ratio IC50” value with MCF7 [2] stood at 16.7. Moreover, the result with MCF7 [3], in the experiment on MCF7 [4], with MCF7 [5], in the experiment on MCF7 [6], in the experiment with MCF7 [7] and with MCF7 [8] was Active. Besides, the “fold change (FC)” value in the experiment with MCF7 [15] is listed as 13; in the experiment with MCF7 [16], 16.

(Values after ChEMBL document CHEMBL3994607, “Synthesis of new sarsasapogenin derivatives with cytotoxicity and apoptosis-inducing activities in human breast cancer MCF-7 cells” (Eur J Med Chem, 2017).)
